Reference: patent publication US20110015162A1, “15,16-Methylene-17-hydroxy-19-nor-21-carboxylic acid-steroid Y-lactone derivative, use thereof and medicinal products containing the derivative” (Bayer Schering Pharma Aktiengesellschaft, priority 2007, published 2011)
Where two headings read alike, the source gives them in different places.

Experiments:
progesterone receptor = target: T1, progesterone receptor (Homo sapiens, UniProt P06401); test: Progesterone receptor binding test; conditions: for Progesterone receptor (PR) Competition factor: CF 1 = affinity of progesterone, CF >1 lower affinity, <1 higher affinity; for CF PR/CF MR: ratio of competition factors CF(PR) and CF(MR)
T1 construct: made in house; host or cells: Hi5 insect cells (cytosol)
T1 sequence (P06401 1-933): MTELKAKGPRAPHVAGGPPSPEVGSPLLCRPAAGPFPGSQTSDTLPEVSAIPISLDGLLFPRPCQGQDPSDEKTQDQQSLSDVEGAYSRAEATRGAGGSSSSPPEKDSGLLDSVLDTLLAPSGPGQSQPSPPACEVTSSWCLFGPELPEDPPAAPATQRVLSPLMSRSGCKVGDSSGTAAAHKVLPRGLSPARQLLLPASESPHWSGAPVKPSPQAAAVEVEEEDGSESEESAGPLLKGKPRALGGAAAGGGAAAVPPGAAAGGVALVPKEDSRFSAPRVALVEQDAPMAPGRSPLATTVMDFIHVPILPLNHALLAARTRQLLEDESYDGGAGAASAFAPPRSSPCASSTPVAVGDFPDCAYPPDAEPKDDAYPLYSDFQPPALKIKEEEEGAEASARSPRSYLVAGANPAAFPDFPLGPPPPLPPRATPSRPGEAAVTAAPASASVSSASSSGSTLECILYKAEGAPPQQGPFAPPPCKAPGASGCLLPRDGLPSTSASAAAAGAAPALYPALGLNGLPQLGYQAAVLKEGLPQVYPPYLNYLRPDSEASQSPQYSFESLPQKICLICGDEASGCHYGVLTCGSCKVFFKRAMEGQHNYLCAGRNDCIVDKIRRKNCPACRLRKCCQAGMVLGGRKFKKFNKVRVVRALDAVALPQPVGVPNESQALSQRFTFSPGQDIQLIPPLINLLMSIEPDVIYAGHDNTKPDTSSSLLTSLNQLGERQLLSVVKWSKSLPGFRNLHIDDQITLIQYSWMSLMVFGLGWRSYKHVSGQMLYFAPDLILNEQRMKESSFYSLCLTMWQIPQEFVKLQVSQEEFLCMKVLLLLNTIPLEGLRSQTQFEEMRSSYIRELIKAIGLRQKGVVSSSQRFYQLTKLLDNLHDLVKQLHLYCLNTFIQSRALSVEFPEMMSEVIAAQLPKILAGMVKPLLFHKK
Procedure: 1. Progesterone Receptor Binding Test:
Using cytosol from progesterone receptor-expressing insect cells (Hi5), competitive binding to the progesterone receptor was determined from the ability to displace ^3H-progesterone as reference substance from the receptor.

[1] = target: T2, fusion protein from the PR-ligand-binding domain and a Gal4-transactivation domain (Homo sapiens, UniProt P06401); test: Progestational action by transactivation test (CHO K1 reporter cells); assay type: cell-based; conditions: for Emax: read-out: Progesterone receptor Agonism efficacy
T2 construct: expressed in transfected cells; host or cells: CHO K1 cells, stably transfected
T2 sequence (P04386 1-147 partner limits assumed, one chain of several): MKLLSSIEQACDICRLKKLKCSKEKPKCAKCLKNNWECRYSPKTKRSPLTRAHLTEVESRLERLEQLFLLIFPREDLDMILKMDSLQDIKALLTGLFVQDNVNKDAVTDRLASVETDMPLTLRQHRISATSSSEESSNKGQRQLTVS
Procedure: 4. Determination of Progestational Action by Means of Transactivation Tests:
The culture medium used for culture of the cells used for the assay was DMEM (Dulbecco's Modified Eagle Medium: […] glucose; PAA, #E15-009) with 10% FCS (Biochrom, S0115, batch #615B), 4 mM L-glutamine, 1% penicillin/streptomycin, 1 mg/ml G418 and 0.5 μg/ml puromycin.
Reporter cell lines (CHO K1 cells stably transfected with a fusion protein from the PR-ligand-binding domain and a Gal4-transactivation domain and a reporter construct, which contained luciferase under the control of a Gal4-responsive promoter) were seeded at a density of 4×10^4 cells per well in white, opaque tissue culture plates each with 96 wells (PerkinElmer, #P12-106-017) and kept in culture medium with 3% DCC-FCS (serum treated with activated charcoal to remove interfering components contained in the serum). The test compounds were added eight hours later, and the cells were incubated with the compounds for 16 hours. The tests were carried out in triplicate. At the end of incubation the medium containing the effector was removed and replaced with lysis buffer. After luciferase assay substrate (Promega, #E1501) had been added, the 96-well plates were then put in a microplate luminometer (Pherastar, BMG Labtech), and the luminescence was measured. The IC50 values were evaluated using software for calculating dose-effect relations.

androgen receptor = target: T3, androgen receptor (Homo sapiens, UniProt P10275); test: Androgenic/antiandrogenic action by transactivation test (PC3 reporter cells); assay type: cell-based; set-up: expressed in transfected cells; host or cells: PC3 cells
T3 sequence (P10275 1-920): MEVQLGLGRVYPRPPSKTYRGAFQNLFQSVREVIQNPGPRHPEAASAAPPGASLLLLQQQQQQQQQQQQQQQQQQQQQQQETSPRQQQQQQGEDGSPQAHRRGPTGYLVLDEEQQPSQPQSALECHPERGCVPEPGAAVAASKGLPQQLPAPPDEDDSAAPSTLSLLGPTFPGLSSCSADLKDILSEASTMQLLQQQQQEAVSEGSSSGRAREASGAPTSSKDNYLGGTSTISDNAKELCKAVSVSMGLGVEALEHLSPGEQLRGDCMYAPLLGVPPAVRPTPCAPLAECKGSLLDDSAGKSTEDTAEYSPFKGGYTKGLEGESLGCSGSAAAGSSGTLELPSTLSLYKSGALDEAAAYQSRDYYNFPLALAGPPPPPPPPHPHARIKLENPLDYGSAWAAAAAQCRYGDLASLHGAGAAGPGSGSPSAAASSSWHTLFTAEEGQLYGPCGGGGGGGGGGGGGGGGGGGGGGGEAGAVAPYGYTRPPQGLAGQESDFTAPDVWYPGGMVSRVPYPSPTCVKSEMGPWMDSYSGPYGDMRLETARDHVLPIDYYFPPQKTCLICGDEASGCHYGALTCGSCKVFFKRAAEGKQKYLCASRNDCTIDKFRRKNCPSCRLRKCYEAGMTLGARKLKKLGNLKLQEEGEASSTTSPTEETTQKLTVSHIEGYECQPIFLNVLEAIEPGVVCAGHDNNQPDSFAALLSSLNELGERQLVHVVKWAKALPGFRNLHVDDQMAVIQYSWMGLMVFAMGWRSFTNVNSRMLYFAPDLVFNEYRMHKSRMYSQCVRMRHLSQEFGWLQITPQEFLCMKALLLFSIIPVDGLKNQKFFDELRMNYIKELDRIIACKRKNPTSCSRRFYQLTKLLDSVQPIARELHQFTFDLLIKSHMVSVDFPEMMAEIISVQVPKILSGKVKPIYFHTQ
Procedure: The test compounds were added eight hours later, and the cells were incubated with the compounds for 16 hours. The tests were carried out in triplicate. At the end of incubation the medium containing the effector was removed and replaced with lysis buffer. After luciferase assay substrate (Promega, #E1501) had been added, the 96-well plates were then put in a microplate luminometer (Pherastar, BMG Labtech), and the luminescence was measured. The IC50 values were evaluated using software for calculating dose-effect relations.
6. Determination of Androgenic/Antiandrogenic Action by Means of Transactivation Tests:
The androgenic/antiandrogenic action of the test substances was determined as for the transactivation tests described above.
The following modifications were made: In this case reporter cell lines were used (PC3 cells) that express the androgen receptor, and a reporter construct that contains luciferase under the control of a steroid hormone-responsive promoter.
For determination of the antiandrogenic efficacy, 0.05 nM R1881 was added to the cells, in order to achieve almost maximum stimulation of the reporter gene.

[2] = PC-3, read-out: Androgen receptor Agonism efficacy
[3] = PC-3, read-out: Androgen receptor Antagonism efficacy
[4] = displacement of 3H-progesterone, cytosol from PR-expressing insect cells (Hi5), read-out: Progesterone receptor (PR) IC50
[5] = CHO K1 reporter cells, 16 hours incubation

Row | SMILES | IC50 (progesterone receptor) | Progesterone receptor (PR) Competition factor (progesterone receptor) | CF PR/CF MR (progesterone receptor) | Emax ([1]; CHO-K1, 16 h) | EC50 (androgen receptor) | Emax (androgen receptor; [2]) | Emax (androgen receptor; [3]) | IC50 (progesterone receptor; [4]) | Emax [1, 5] | IC50 (androgen receptor) | EC50 [1] | Progesterone receptor Agonism EC50 [1, 5] | EC50 ([1]; CHO K1 reporter cells, 16 hours incubation, read-out: Progesterone receptor Agonism EC50)
1 | CC[C@]12CC[C@H]3[C@H]([C@@H]1[C@@H]1C[C@@H]1[C@@]21C=CC(=O)O1)[C@H](C1CC1)CC1=CC(=O)CC[C@@H]13 [Example 7A, 17β-Hydroxy-7α-cyclopropyl-18-methyl-15β,16β-methylene-19-nor-17α-pregna-4,20(Z)-dien-3-one-21-carboxylic acid γ-lactone] | 380 nM | 14.22 | 3.03 | 5% | 33 nM | 62.6% | 5% |  |  |  |  |  | 
2 | CC[C@]12CC[C@H]3[C@@H]([C@H]4C[C@H]4C4=C(Cl)C(=O)CC[C@@H]43)[C@@H]1[C@@H]1C[C@@H]1[C@@]21C=CC(=O)O1 [Example 8, 6β,7β;15β,16β-Bismethylene-4-chloro-17β-hydroxy-18-methyl-19-nor-17α-pregna-4,20(Z)-dien-3-one-21-carboxylic acid γ-lactone] |  | 31.12 | 1.07 |  | 250 nM | 32.9% | 22.9% | 740 nM | 9.8% | 130 nM |  |  | 
3 | CC[C@]12CC[C@H]3[C@@H](CCC4=CC(=O)CC[C@@H]43)[C@@H]1[C@@H]1C[C@@H]1[C@@]21C=CC(=O)O1 [Example 9, 17β-Hydroxy-18-methyl-15β,16β-methylene-19-nor-17α-pregna-4,20(Z) dien-3-one-21-carboxylic acid γ-lactone] | 78.5 nM | 1.65 | 1.50 | 56% | 4.7 nM | 96.2% | 5% |  |  |  | 1.6 nM |  | 
4 | CC[C@]12CC[C@H]3[C@@H](C[C@@H](CO)C4=CC(=O)CC[C@@H]43)[C@@H]1[C@@H]1C[C@@H]1[C@@]21C=CC(=O)O1 [Example 10, 17β-Hydroxy-6β-hydroxymethylene-18-methyl-15β,16β-methylene-19-nor-17α-pregna-4,20(Z)-dien-3-one-21-carboxylic acid γ-lactone] |  | 4000.00 | inactive |  | 130 nM | 17.9% | 15.6% |  |  | 160 nM |  | inactive | 
5 | C[C@]12CC[C@H]3[C@@H](CCC4=CC(=O)CC[C@@H]43)[C@@H]1[C@H]1C[C@H]1[C@@]21C=CC(=O)O1 [Example 12, 17β-Hydroxy-15α,16α-methylene-19-nor-17α-pregna-4,20(Z)-dien-3-one-21-carboxylic acid γ-lactone] | 49 nM | 1.50 | 0.52 | 75.5% | 130 nM | 14.9% | 61.7% |  |  | 86 nM | 0.4 nM |  | 
6 | C[C@]12CC[C@H]3[C@@H](C=CC4=CC(=O)CC[C@@H]43)[C@@H]1[C@H]1C[C@H]1[C@@]21C=CC(=O)O1 [Example 13, 17β-Hydroxy-15α,16α-methylene-19-nor-17α-pregna-4,6,20(Z)-trien-3-one-21-carboxylic acid γ-lactone] |  | 7.89 | 4.93 |  | 120 nM | 14.4% | 47.4% | 190 nM | 37.1% | 100 nM |  |  | 150 nM
7 | C[C@@H]1CC2=CC(=O)CC[C@@H]2[C@H]2CC[C@@]3(C)[C@@H]([C@H]4C[C@H]4[C@@]34C=CC(=O)O4)[C@@H]21 [Example 14A, 17β-Hydroxy-7α-methyl-15α,16α-methylene-19-nor-17α-pregna-4,20(Z)-dien-3-one-21-carboxylic acid γ-lactone] | 49 nM | 2.04 | 1.57 | 86.3% | 13 nM | 41.8% | 21% |  |  | 1.5 nM | 16 nM |  | 
8 | CC[C@@H]1CC2=CC(=O)CC[C@@H]2[C@H]2CC[C@@]3(C)[C@@H]([C@H]4C[C@H]4[C@@]34C=CC(=O)O4)[C@H]12 [Example 15A, 17β-Hydroxy-7α-ethyl-15α,16α-methylene-19-nor-17α-pregna-4,20(Z)-dien-3-one-21-carboxylic acid γ-lactone] | 200 nM | 8.36 | 10.45 | 39.5% | 11 nM | 49.4% | 5% |  |  |  | 92 nM |  | 
